Data reported in publication PMC11696429 (ACS Omega, 2024).
Like-named read-outs stand apart in the source and are kept apart here.

Legend:
Type in all cases: binding
integrin αvβ3 [1] = biological target: T1, integrin αvβ3 (Homo sapiens, UniProt P05106+P06756)
integrin αvβ3 [2] = biological target: T1, integrin αvβ3; remark: listed apart in the source
integrin αvβ3 [3] = biological target: T1, integrin αvβ3; conditions: for IC50: IC50 (competitive displacement), day 7, competitor [^125I]I-echistatin

N=C(N)NCCC[C@@H]1NC(=O)[C@H](CCCCNC(=O)CCOCCOCCOCCOCCOCCOCCNC(=O)CC[C@H](C(=O)O)N2CCN(CC(=O)O)CCN(CC(=O)O)CC2)NC(=O)[C@@H](Cc2ccccc2)NC(=O)[C@H](CC(=O)O)NC(=O)CNC1=O [NODAGA-PEG5-c(RGDfK), NODAGA-PEG5-c(Arg-Gly-Asp-D-Phe-Lys)]
IC50 (integrin αvβ3 [1]): 3.08 ± 0.12 µM | IC50 (integrin αvβ3 [2]): 10.4 ± 0.89 µM | change of IC50 value by BME (integrin αvβ3 [2]; 2D monolayer with BME vs without BME supplementation): triplication | IC50 (integrin αvβ3 [3]; U87MG spheroids generated with collagen-1 supplementation): 20.5 ± 4.41 µM | IC50 (integrin αvβ3 [3]; U87MG spheroids generated without supplementation): 16.5 ± 2.88 µM | reduced interaction in 3D spheroids compared to 2D monolayer (fold) (integrin αvβ3 [3]; IC50 in 3D U87MG spheroids vs 2D monolayer cell system): 5–7 fold
